Several values for one entry are separate records, joined by “and”; a condition that tells them apart may be missing. Equal entries are not always repeated.
Assays:
[1] = Tissue biodistribution of Pt by ICP-MS; format: in vivo, nude mice; conditions: 48 h post-injection
Protocol: Free CDDP and TM (CDDP/PTX=2:1) were injected into nude mice via tail vein at a single equivalent dose of CDDP 6 mg/kg. At 48 h post-injection, major organs (heart, liver, spleen, lung and kidney) and tumor tissues were harvested from the mice. The organs were weighed and dissolved in the concentrated nitric acid by heating up (70° C.) and evaporated to dryness, and then re-dissolved in 0.1N HCl for tissue biodistribution of Pt analysis by ICP-MS.

[2] = system: SKOV-3 ovarian cancer cells; assay: MTS cytotoxicity and combination index, SKOV-3; format: cell-based, human; conditions: 72 h
Protocol: (§1) In vitro synergistic cytotoxicity: The cytotoxicity of blank micelles and drug-loaded micelle were assessed by measuring the cell viability using the standard MTS assay. SKOV-3 ovarian cancer cells and ES-2 ovarian cancer cells were seeded in 96-well plates at 4×10^3 cells per well in 100 μL of McCoy's 5A with L-glutamine containing 10% fetal bovine serum, supplemented with 50 U/mL penicillin and 50 U/mL streptomycin, and incubated at 37° C. in 5% CO2 atmosphere for 24 h. Different concentrations of the empty micelle solutions and drug-loaded micelles were added into the cell medium. After 72 h incubation, Cell Titer 96® Aqueous Cell Proliferation Reagent, which is composed of MTS and an electron coupling reagent PMS, was added to each well according to the manufacturer's instructions. The cell viability was determined by measuring the absorbance at 490 nm using a micro-plate reader. […]
(§2) The effective method to evaluate synergistic drug combinations in vitro is median-effect analysis, as originally proposed by Chou and Talalay (Chou T C. Theoretical basis, experimental design, and computerized simulation of synergism and antagonism in drug combination studies. Pharmacol Rev. 2006; 58:621-81. Chou T C, Talalay P. Quantitative analysis of dose-effect relationships: the combined effects of multiple drugs or enzyme inhibitors. Adv Enzyme Regul. 1984; 22:27-55.). […]

Hela cells = assay: MTS cytotoxicity and combination index, Hela; format: cell-based; conditions: 72 h
[3] = cancer treatment in mouse models; cited from earlier work
[4] = system: ES-2 ovarian cancer cells; assay: MTS cytotoxicity and combination index, ES2; format: cell-based; conditions: 72 h
Protocol: as §1, §2

[5] = system: SKOV-3 ovarian cancer xenografts; assay: In vivo anticancer efficacy
Protocol: Xenograft Mouse Models. Female athymic nude mice (Nu/Nu strain), 5-6 weeks age, were purchased from Harlan (Livermore, Calif.). All animals were kept under pathogen-free conditions according to AAALAC (Association for Assessment and Accreditation of Laboratory Animal Care) guidelines and were allowed to acclimatize for at least 4 days prior to any experiments. All animal experiments were performed in compliance with institutional guidelines and according to protocol approved by the Animal Use and Care Administrative Advisory Committee. SKOV-3 ovarian cancer cells (7×10^6) in a 100/IL of mixture of PBS and Matrigel (1:1 v/v) without fetal bovine serum (FBS) were injected subcutaneously into the flanks of nude mice to form nodules.
In vivo anticancer efficacy. Nude mice bearing human SKOV3 ovarian cancer tumor (approximately 150 mm^3) were randomly divided into 6 groups (n=5), including control (PBS only), free CDDP (4 mg/kg CDDP), TM(PTX) (3 mg/kg PTX), PEG(CDDP) (4 mg/kg CDDP), TM(CDDP) (6 mg/kg CDDP), and TM(CDDP/PTX=2:1) (6 mg/kg CDDP, 3 mg/kg PTX). Treatments were administered 3 times totally via tail vein on day 0, 4 and 8. Animal body weight and tumor volume were monitored every second day. Seven days after the last treatment, about 100 μL of blood was collected via tail bleeding for blood counts. The tumor sizes were measured with electronic calipers, and calculated using the following formula: V=(shortest diameter^2×longest diameter)/2.

[6] = Pharmacokinetics of platinum in plasma after i.v. injection; format: in vivo, mice
Protocol: Pharmacokinetics and biodistribution. The blood pharmacokinetics study were performed using female SPF BALB/c mice, which were purchased from Charles River Laboratories Inc. Nanocarriers were administered into mice via tail vein injection with free drug mixture of CDDP/PTX or co-loading TM (CDDP/PTX=2:1) solution at a single equivalent dose of CDDP/PTX 6/3 mg/kg via tail vein. At defined time points (5 min, 0.5 h, 1 h, 2 h, 4 h, 8 h, 24 h and 48 h), blood samples were collected into heparinized tubes and immediately centrifuged at 1,000 rpm for 15 min to obtain plasma. Plasma samples were dissolved on heat in nitric acid and the platinum contents were measured by ICP-MS. The percentage of injected dose in plasma was calculated considering plasma volume in mice to be 45.6 mL/kg. (King F G, Dedrick R L. Physiological pharmacokinetic parameters for cis-dichlorodiammineplatinum(II) (DDP) in the mouse. J Pharmacokinet Biopharm. 1992; 20:95-9.)

[7] = in vivo; cited from earlier work
[8] = system: wide variety of cancer cells in culture; conditions: cited from earlier work
[9] = DOX release, dialysis against PBS; format: physicochemical; conditions: dialysis against PBS at 37° C.
Protocol: DOX Release. 1 mL of DOX-PEG^5KCHA4-L-Rh4 (1.5:15.0) solution was distributed into three dialysis tube and dialyzed against 50 ml PBS at 37° C., respectively, in comparison with free DOX. The samples were placed in conical tubes filled with PBS, which was refreshed at the time of UV-Vis measuring at 550 nm (FIG. 13). The free DOX was completely released by 10 hours but the loaded DOX remained encapsulated at around 50% by the time the study was finished at 96 hours. This indicates the high DOX binding affinity within PEG^5KCHA4-L-Rh4 micelles and a sustained DOX release would reduce in vivo toxicity of payload drug and increase tumor targeting effects via the prolonged circulating to take EPR effects.

SKOV-3 tumor xenograft = assay: NIRF optical animal imaging, in vivo and ex vivo; design: species or system nude mice; conditions: in vivo whole body imaging
Protocol: DiD (a hydrophobic near-infrared (NIR) cyanine dye) was encapsulated in each nanocarrier (together with PTX and CDDP) at a ratio of 2:1:0.1 (CDDP/PTX/DiD by weight) using the same method as described above. The particle size was measured by DLS analysis. 100 μL of TM(DiD-PTX-CDDP) solution was filtered with a 0.22 μm filter to sterilize solution before injection. At the same time, same amount of DiD in DMSO solution was diluted with PBS right before I.V. injection. The fluorescent DiD co-loaded TM with equivalent dose of 6 mg/kg CDDP were injected into nude mice bearing SKOV-3 tumor xenograft via tail vein. Mice were anesthetized via isoflurane and optically imaged at different time points (1 h, 2 h, 4 h, 8 h, 24 h, 48 h and 72 h) using an IVIS 200 (PerkinElmer) with the (excitation/emission 625/700 nm). At the end of the experiments, the animals were sacrificed and all the major organs as well as tumors were excised for ex vivo imaging to determine the in vivo biodistribution of nanoparticles. The associated fluorescence intensities were determined by Living Image software (Caliper Life Sciences) using operator-defined regions of interest (ROI) measurements.

[10] = first figure of co-loaded cells
[11] = platinum in plasma, i.v., two compartment model

In the case of `[NH2][Pt]([NH2])([Cl])[Cl]` [CDDP, Cisplatin], the “kidney/tumor ratio of Pt concentrations” value [1] is reported as 4, the “liver/tumor ratio of Pt concentrations” value [1] is reported as 2 and the “SKOV-3 IC50, CDDP concentration” value ([2]; first figure of co-loaded cells (CDDP/PTX)) is reported as 1.354 µg/mL. The “Hela IC50, CDDP concentration” value (Hela cells; [10]) was 2.427 µg/mL, the “maximum tolerated dose (MTD)” value [3] was no more than 4 mg/kg and the “ES2 IC50, CDDP concentration” value [4, 10] was 0.92 µg/mL. For the same compound, the medium survival time ([5]; 4 mg/kg CDDP) was 15 days, the body weight loss ([5]; 4 mg/kg CDDP on days 0, 4, 8, day 12) was “exceeded 20%” and the mortality ([5]; 4 mg/kg CDDP, deaths on day 12, 13, 15, 16 and 17) was “died”. For the same compound, the “WBC count versus PBS control” value ([5]; day 7 after the last injection, 4 mg/kg CDDP) was “significantly decreased”, the “Pt of the injected dose in plasma” value ([6]; 30 min after injection) was 5% and the “Pt of the injected dose in plasma” value ([6]; 24 h post injection) was “less than 1%”. For the same compound, the Cmax ([6]; platinum in plasma, 5 min post iv injection) was 27600 ng/mL and 27580 ng/mL, the AUC ([6]; platinum in plasma, i.v.) was 30800 ng·h/mL and the CL ([6]; platinum in plasma, i.v.) was 2.1645 mL/min/kg. It also gave a CL2 ([6]; platinum in plasma, i.v.) of 9.3217 mL/min/kg, a Vss ([6]; platinum in plasma, i.v.) of 0.6681 L/kg and a t1/2α [6, 11] of 2.64 min. The t1/2β [6, 11] was 258 min.

In the case of `CC(=O)O[C@H]1C(=O)[C@@]2(C)[C@H]([C@H](OC(=O)c3ccccc3)[C@]3(O)C[C@H](OC(=O)[C@H](O)[C@@H](NC(=O)c4ccccc4)c4ccccc4)C(C)=C1C3(C)C)[C@]1(OC(C)=O)CO[C@@H]1C[C@@H]2O` [PTX, paclitaxel], the t1/2 in human [7] is given as 20.4 min, the IC50 ([2]; Homo sapiens, SK-OV-3, second figure of co-loaded cells (CDDP/PTX), read-out: SKOV-3 IC50, PTX concentration) is given as 0.032 µg/mL and the IC50 (Hela cells; Homo sapiens, HeLa, second figure of co-loaded cells, read-out: Hela IC50, PTX concentration) is given as 0.02 µg/mL. The “potency relative to CDDP (IC50s: low nM vs low μM)” value [8] was roughly 1000 times and the IC50 ([4]; second figure of co-loaded cells, read-out: ES2 IC50, PTX concentration) was 0.055 µg/mL.

With `COc1cccc2c1C(=O)c1c(O)c3c(c(O)c1C2=O)C[C@@](O)(C(=O)CO)C[C@@H]3O[C@H]1C[C@H](N)[C@H](O)[C@H](C)O1` [free DOX, Doxorubicin] the “time to complete DOX release” value [9] was no more than 10 h.

For `CCCCCCCCCCCCCCCCCCN1C(=CC=CC=CC2=[N+](CCCCCCCCCCCCCCCCCC)c3ccccc3C2(C)C)C(C)(C)c2ccccc21.[O-][Cl+3]([O-])([O-])[O-]` [free DiD, 1,1′-dioctadecyl-3,3,3,′,3′-tetramethylindodicarbocyanine perchlorate], the tumor fluorescence (SKOV-3 tumor xenograft) was “very weak tumor fluorescence”.

— US10463694B2, “Functional segregated telodendrimers and nanocarriers and methods of making and using same” (The Research Foundation for the State University of New York, priority 2014, dated 2019)
